Test results as given in patent US7199147B2, “Rho kinase inhibitors” (Dainippon Sumitomo Pharma Co., Ltd., priority 2001, dated 2007).
Where a name gives a salt, the structure may show the parent alone.

| melting point | Structure (SMILES) |
| --- | --- |
| 242 to 245 °C (dec.) | O=C(O)C(F)(F)F.c1cc2[nH]ncc2cc1NC1CCOCC1 |
| 187 to 189 °C | O=C(NC1CCN(Cc2ccccc2)C1)c1ccc2[nH]ncc2c1 (centres unmarked) |
| 203 to 204 °C | O=C(NC1CCCN(Cc2ccccc2)C1)c1ccc2[nH]ncc2c1 (centres unmarked) |
| 265 to 266 °C | O=C(NC1CCCNC1)c1ccc2[nH]ncc2c1 (centres unmarked) |
| 158 to 159 °C | CCOC(=O)N1C2CCC1CC(Nc1ccc3[nH]ncc3c1)C2 (centres unmarked) |
| 228 to 229 °C | CN1CCCC(NC(=O)c2ccc3[nH]ncc3c2)C1 (centres unmarked) |
| 193 to 195 °C (dec.) | CC(=O)N1CCC(Nc2ccc3[nH]ncc3c2)CC1 |
| 219 to 220 °C (dec.) | CS(=O)(=O)N1CCC(Nc2ccc3[nH]ncc3c2)CC1 |
| 182 to 183 °C | CCS(=O)(=O)N1CCC(Nc2ccc3[nH]ncc3c2)CC1 |
| 132 to 136 °C | O=S(=O)(c1ccccc1)N1CCC(Nc2ccc3[nH]ncc3c2)CC1 |
| 140 to 141 °C | CN(CCC(=O)Nc1ccc2[nH]ncc2c1)Cc1ccccc1 |
| 152 to 153 °C | CN(C)CCC(=O)Nc1ccc2[nH]ncc2c1 |
| 178 to 179 °C | O=C(CCN1CCCCC1)Nc1ccc2[nH]ncc2c1 |
| 215 to 216 °C (dec.) | CC(C)CCC(=O)Nc1ccc2[nH]ncc2c1 |
| 173 to 174 °C | COCCC(=O)Nc1ccc2[nH]ncc2c1 |
| 243 to 244 °C (dec.) | O=C(CCC(F)(F)F)Nc1ccc2[nH]ncc2c1 |
| 140 to 141 °C | CC(C)N1CCC(Nc2ccc3[nH]ncc3c2)CC1 |
| 167 to 169 °C | O=C(CCOCc1ccccc1)Nc1ccc2[nH]ncc2c1 |
| 112 to 114 °C | CN(CCCNc1ccc2[nH]ncc2c1)Cc1ccccc1 |
| 120 to 123 °C | O=S(=O)(Nc1ccc2[nH]ncc2c1)C1CCNCC1 |
| 162 to 165 °C | c1cc(OC2CCNCC2)c2cn[nH]c2c1 |
| 124 to 126 °C | CC(C)CCCOc1ccc2[nH]ncc2c1 |
| 151 to 153 °C | CC(C)COc1ccc2[nH]ncc2c1 |
| 218 to 220 °C (dec.) | O=C(O)CCC(=O)Nc1ccc2[nH]ncc2c1 |
| 158 to 161 °C | N#Cc1cccc(COc2ccc3[nH]ncc3c2)c1 |

| melting point | Structure (SMILES) |
| --- | --- |
| 159 to 160 °C | CN(CC(=O)Nc1ccc2[nH]ncc2c1)Cc1ccccc1 |
| 144 to 146 °C | c1cc2[nH]ncc2cc1OC1CCCCC1 |
| 141 to 142 °C | c1cc2[nH]ncc2cc1OC1CCCC1 |
| 197 to 198 °C | NCc1ccc(COc2ccc3[nH]ncc3c2)cc1 |
| 179 to 183 °C | NCc1cccc(COc2ccc3[nH]ncc3c2)c1 |
| 125 to 126 °C | CC(C)N1CCC(Oc2ccc3[nH]ncc3c2)CC1 |
| 189 to 190 °C | O=C(CN1CCCCC1)Nc1ccc2[nH]ncc2c1 |
| 147 to 148 °C | OC1CCC(Oc2ccc3[nH]ncc3c2)C1 (centres unmarked) |
| 159 to 160 °C | c1cc2[nH]ncc2cc1OC1CCCNCC1 (centres unmarked) |
| 115 to 117 °C | CN(CCCC(=O)Nc1ccc2[nH]ncc2c1)Cc1ccccc1 |
| 194 to 196 °C | O=C1c2ccccc2C(=O)N1[C@H]1CC[C@@H](Oc2ccc3[nH]ncc3c2)CC1 |
| 144 to 146 °C | N[C@H]1CC[C@@H](Oc2ccc3[nH]ncc3c2)CC1 |
| 144 to 146 °C | CNc1ccc2[nH]ncc2c1 |
| 152 to 154 °C | CN(c1ccc2[nH]ncc2c1)C1CCN(Cc2ccccc2)CC1 |
| 148 to 149 °C | COc1ccc2[nH]ncc2c1C |
| 157 to 159 °C | Cc1c(OC2=CC=CNC=C2)ccc2[nH]ncc12 |
| 150 to 152 °C | Cc1c(O[C@H]2CC[C@H](N)CC2)ccc2[nH]ncc12 |
| 175 to 177 °C | CN(c1ccc2[nH]ncc2c1)C1CCNCC1 |
| 150 to 151 °C | CCN[C@H]1CC[C@H](Oc2ccc3[nH]ncc3c2C)CC1 |
| 183 to 185 °C | Cc1c(OC2CCCNC2)ccc2[nH]ncc12 (centres unmarked) |
| 134 to 136 °C | Cc1c(OC2CCN(C(C)C)CC2)ccc2[nH]ncc12 |
| 140 to 143 °C | Cc1c(OC2CCN(C3CCCC3)CC2)ccc2[nH]ncc12 |
| 138 to 140 °C | c1cc2[nH]ncc2cc1OC1CCCN(C2CCCC2)CC1 (centres unmarked) |
| 126 to 131 °C | Cc1c(OC2CCCN(C3CCCC3)CC2)ccc2[nH]ncc12 (centres unmarked) |
| 166 to 168 °C | Cc1c(O[C@H]2CC[C@@H](NC(C)C)CC2)ccc2[nH]ncc12 |

| melting point | Structure (SMILES) |
| --- | --- |
| 153 to 155 °C | Cc1c(O[C@H]2CC[C@@H](NC3CCCC3)CC2)ccc2[nH]ncc12 |
| 161 to 163 °C | CC(=O)N1CCC(Oc2ccc3[nH]ncc3c2C)CC1 |
| 190 to 191 °C | O=C(c1ccc2[nH]ncc2c1)N1CCNCC1 |
| 147 to 149 °C | c1ccc(CN2CCN(Cc3ccc4[nH]ncc4c3)CC2)cc1 |
| 291 to 293 °C (dec.) | CS(=O)(=O)N1CCC(C(=O)Nc2ccc3[nH]ncc3c2)CC1 |
| 286 to 288 °C (dec.) | O=C(Nc1ccc2[nH]ncc2c1)C1CCOCC1 |
| 236 to 238 °C | c1cc2[nH]ncc2cc1NC1CC2CCC(C1)N2 (centres unmarked) |
| 293 to 294 °C (dec.) | c1cc2[nH]ncc2cc1NCC1CCOCC1 |
| 285 to 286 °C | O=C(NC1CCOCC1)c1ccc2[nH]ncc2c1 |
| 184 to 188 °C | Cl.Cl.c1cc2[nH]ncc2cc1NC1CN2CCC1CC2 (centres unmarked) |
| 154 to 157 °C | Cl.Cl.OCCN1C2CCC1CC(Nc1ccc3[nH]ncc3c1)C2 (centres unmarked) |
| 198 to 203 °C | CCCN1C2CCC1CC(Nc1ccc3[nH]ncc3c1)C2.Cl.Cl (centres unmarked) |
| 183 to 185 °C | COc1ccc2ccccc2c1CNc1ccc2[nH]ncc2c1 |
| 195 to 197 °C | O=C(CC1CCN(Cc2ccccc2)CC1)Nc1ccc2[nH]ncc2c1 |
| 126 to 128 °C | CSc1c(O)ccc2[nH]ncc12 |
| 169 to 172 °C | O=C(C=C1CCN(Cc2ccccc2)CC1)Nc1ccc2[nH]ncc2c1 |
| 211 to 212 °C | CSc1c(O[C@H]2CC[C@@H](N3C(=O)c4ccccc4C3=O)CC2)ccc2[nH]ncc12 |
| 155 to 156 °C | CCC(=O)N[C@H]1CC[C@@H](Oc2ccc3[nH]ncc3c2SC)CC1 |
| 146 to 148 °C | CSc1c(O[C@H]2CC[C@@H](NC(=O)c3ccccc3)CC2)ccc2[nH]ncc12 |
| 117 to 118 °C | c1ccc(CN2CCC(CCNc3ccc4[nH]ncc4c3)CC2)cc1 |
| 184 to 186 °C (dec.) | c1cc2[nH]ncc2cc1NCCC1CCNCC1 |
| 196 to 198 °C (dec.) | c1ccc(CN2CCN(c3ccc4[nH]ncc4c3)CC2)cc1 |
| 234 to 235 °C (dec.) | CN(C)C(=O)c1ccccc1Nc1ccc2[nH]ncc2c1 |
| 257 to 260 °C (dec.) | Cl.Cl.c1ccc(CN2CCC(Nc3cccc4[nH]ncc34)CC2)cc1 |
| 270 to 271 °C | Cl.Cl.c1cc(NC2CCNCC2)c2cn[nH]c2c1 |

| melting point | Structure (SMILES) |
| --- | --- |
| 196 to 197 °C (dec.) | c1cc2cn[nH]c2cc1NC1CCNCC1 |
| 116 to 117 °C | Cn1ncc2cc(NC3CCN(Cc4ccccc4)CC3)ccc21 |
| 111 to 113 °C | Cn1ncc2cc(NC3CCNCC3)ccc21 |
| 108 to 110 °C | Cn1cc2cc(NC3CCN(Cc4ccccc4)CC3)ccc2n1 |
| 144 to 147 °C | Cn1cc2cc(NC3CCNCC3)ccc2n1 |
| 160 to 162 °C | Cc1n[nH]c2ccc(NC3CCN(Cc4ccccc4)CC3)cc12 |
| 175 to 177 °C | Cc1n[nH]c2ccc(NC3CCNCC3)cc12 |
| 89 to 90 °C | c1ccc(CN2CCC(Nc3ccc4oncc4c3)CC2)cc1 |
| 130 to 131 °C | COc1c(OS(C)(=O)=O)ccc2[nH]ncc12 (as salt: methanesulfonate) |
| 166 to 168 °C | N[C@H]1CCC[C@@H](Oc2cccc3[nH]ncc23)C1 (relative stereo) |
| 197 to 198 °C | O=C1c2ccccc2C(=O)N1[C@H]1CCC[C@H](Oc2ccc3[nH]ncc3c2)C1 (relative stereo) |
| 179 to 180 °C | N[C@H]1CCC[C@H](Oc2ccc3[nH]ncc3c2)C1 (relative stereo) |
| 134 to 135 °C | CN(C)[C@H]1CCC[C@H](Oc2ccc3[nH]ncc3c2)C1 (relative stereo) |
| 116 to 118 °C | CCN[C@H]1CCC[C@H](Oc2ccc3[nH]ncc3c2)C1 (relative stereo) |
| 156 to 160 °C | Cc1c(O[C@H]2CCC[C@H](N)C2)ccc2[nH]ncc12 (relative stereo) |
| 142 to 144 °C | N[C@H]1CCC[C@H](Oc2ccc3[nH]ncc3c2Cl)C1 (relative stereo) |
| 190 to 193 °C | CCCCC(=O)N[C@H]1CCC[C@@H](Oc2ccc3[nH]ncc3c2C)C1 (relative stereo) |
| 242 to 244 °C (dec.) | Cc1c(O[C@@H]2CCC[C@H](NC(=O)C3CCCC3)C2)ccc2[nH]ncc12 (relative stereo) |
| 140 to 142 °C | Cc1c(O[C@@H]2CCC[C@H](NCC3CCCC3)C2)ccc2[nH]ncc12 (relative stereo) |
| 164 to 166 °C | COc1ccc(CN[C@H]2CCC[C@@H](Oc3ccc4[nH]ncc4c3C)C2)cc1 (relative stereo) |
| 110 to 112 °C | Cc1c(O[C@H]2CCC[C@H](NC3CCCC3)C2)ccc2[nH]ncc12 (relative stereo) |
| 151 to 152 °C | c1cc2[nH]ncc2cc1OC1CCOCC1 [Example 44] |
| 151 to 153 °C | c1cc2[nH]ncc2cc1OC1CCOCC1 [Example 365] |
